Data as given in patent publication US20220062247A1, “USE OF A PAR-1 ANTAGONIST FOR THE TREATMENT OF A CHRONIC INFLAMMATORY INTESTINAL DISEASE” (CVASTHERA, priority 2018, published 2022).

What was measured:
[1] = system: inflammatory bowel disease induced by 2,4,6-trinitrobenzenesulfonic acid (TNBS); assay: Colitis induced by intra-colonical TNBS in rats (body weight, DAI score, colon wall thickness, macroscopic damage score, MPO); assay type: in vivo, male laboratory rat of the Wistar strain
Description: The purpose of this study is to assess the effectiveness of two PAR-1 antagonists, vorapaxar and 3-2-(chloro-phenyl)-1-[4-(4-fluoro-benzyl)-piperazine-1-yl]propenone (hereinafter, referred to as CSI) in a model of an inflammatory bowel disease induced by 2,4,6-trinitrobenzenesulfonic acid (TNBS) in a male laboratory rat of the Wistar strain. This model is described in the publication of Whittle et al., 2003, in Methods Mol. Biol., 225, 209-222.
In this induced colitis model, the inflammatory reaction is measured every day and is well established 7 days after intra-colonical administration of TNBS.
(§1) Different parameters are measured: the weight of the rats, the presence of blood in the faeces and the diarrhoeas assessed by the disease activity index (DAI score), the intensity of pain (assessed by Von Frey filaments technique measured on days 3 and 7).
The rats are sacrificed 7 days after the beginning of the treatment and the macroscopic damages, the oedema and a marker of the inflammation, myeloperoxidase (MPO), are quantified.
The experiments with the PAR-1 antagonists are carried out in two studies, relating to vorapaxar and CSI, respectively.
The colitis is induced by intra-colonical administration of 2,4,6-trinitrobenzenesulfonic acid (TNBS) (30 mg of TNBS in 0.25 ml of a 50% ethanol/NaCl solution) via a catheter (polyethylene (PE)-60) inserted 8 cm proximally from the anus.
Four groups of 10 rats receive an intra-colonical administration of TNBS, as well as a per os treatment of vorapaxar at the dose of 2.5 mg/kg/day or of CSI at doses of 10 and 40 mg/kg/day or of prednisolone (a compound proposed by the prior art for the treatment of IBDs) at the dose of 3 mg/kg/day. The per os treatments start 1 h before the intra-colonical administration of TNBS.
As a negative comparative example, 1 group of 10 rats receives an intra-colonical administration of TNBS and of the vorapaxar vehicle (phosphate buffered saline—PBS) or of the CSI vehicle (carboxymethyl cellulose—CMC at 1%) per os daily.
Moreover, 1 group of 6 control rats receives an intra-colonical administration of NaCl instead of TNBS.
The DAI score is determined as follows. The development of the disease is estimated on a daily basis. The consistence of the excrements, as well as the presence of blood in the faeces assessed with the Hemoccult® paper test, are respectively quantified by the seriousness scales of Table 3 hereinbelow. The obtained values are added together to obtain the DAI score.
The macroscopic damage score is assessed according to the protocol described in the publication of Comera et al., 1999, Dig. Dis. Sci. 44: 1448-1457, as follows. On day 7 after induction of the colitis, the rats are sacrificed by carbon dioxide CO2 inhalation, the colon (from the anus to the Caecum) is removed and the macroscopic damages are assessed according to the parameters observed and presented in Table 4 hereinbelow, to determine the macroscopic damage score.

[2] = system: inflammatory bowel disease, Dextran Sulphate sodium (DSS); assay: Dextran Sulphate sodium (DSS) model of inflammatory bowel disease in mice (body weight, DAI, macroscopic damage score, MPO); assay type: in vivo, mice (C57B16); parameters: Disease activity index, D1 / Disease activity index, D2 / Disease activity index, D3 / Disease activity index, D4 / Disease activity index, D5 / Disease activity index, D6 / Disease activity index, D7 / macroscopic damage score: scale not given here
Description: The purpose of this study is to assess the effectiveness of a PAR-1 antagonist according to the invention, 3-2-(chloro-phenyl)-1-[4-(4-fluoro-benzyl)-piperazine-1-yl]propenone (CSI) in a model of an inflammatory bowel disease, Dextran Sulphate sodium (DSS) in mice. This DSS model is described in the publication of Choi et al., 2010, in J. Biomed. Biotechnol., 2010:943516; doi: 10.1155/2010/943516.
This model features a cytokine profile Th1 in its acute phase, periods of remission and relapses, it is consequently very similar to ulcerous colitis. The DSS distributed in the drinking water can cause an inflammation of the digestive tract and produce colorectal tumours in the rodent. The DSS is widely used as an animal model of human inflammatory diseases of the digestive tract.
The present study is conducted in 7-week-old mice (C57B16). The 5-aminosalicylic acid serves as a positive comparative example.
The first day of the study starts with the daily administration of a beverage containing DSS at 5% p/p in water to the mice, until the day of sacrifice. The development of the disease is estimated on a daily basis, with accurate weighting of the mice, the assessment of the consistence of the excrements as well as the presence of blood in the faeces with the Hemoccult® paper test. The DAI score is calculated as indicated in Example 1.
Each day, groups of mice receive per os CSI at different concentrations, or 5-aminosalicylic acid (5-ASA), or the vehicle alone, that is to say carboxymethyl cellulose (CMC) at 1%.
The mice are sacrificed 7 days after the beginning of the treatment. The colon is excised and the macroscopic damages are assessed. The colon is then cut into 4 pieces, the distal portion is placed in an Eppendorf tube and stored at −80° C. until the measurement of the activity of myeloperoxidase and the quantification of proteins. The proximal portion is kept in formaline at 10% for future histological analyses. The two other central portions are placed in Eppendorf tubes and stored at −80° C. for future analyses.
On day 7, after having sacrificed the animals, the colon is removed. The macroscopic damage score, assessed as described in Example 1, and the myeloperoxidase (MPO) activity are determined.

[3] = system: nociceptive response induced by TNBS; assay: Nociceptive response (allodynia) by Von Frey filaments technique in TNBS colitis rats; assay type: in vivo, rat; conditions: 3 mg/kg/day, 7 days after colitis induction
Procedure: as §1
The intensity of the pain is measured by the Von Frey filaments technique on days […], according to the protocol described in the publication of Auge et al., 2013, Eur. J. Pharmacol. 707: 32-40.
The effect on the nociceptive response, measured by Von Frey filaments technique according to the mass of Von Frey filaments, is shown in FIG. 10 for prednisolone and in FIG. 11 for vorapaxar.

[4] = DSS 5%, Group 2, 10 mg/kg/24 h per os, Moy
[5] = DSS 5%, Group 3, 40 mg/kg/24 h per os, Moy
[6] = DSS 5%, Group 5, 50 mg/kg/24 h per os, Moy
[7] = DSS mice, 50 mg/kg daily oral (Group 5), all observed points

SMILES: O=C(/C=C/c1ccccc1Cl)N1CCN(Cc2ccc(F)cc2)CC1 [CSI, 3-2-(chloro-phenyl)-1-[4-(4-fluoro-benzyl)-piperazine-1-yl]propenone]
- disease activity index (DAI) ([1]; 10 mg/kg daily, 7th day): significantly reduces
- MPO activity ([1]; 40 mg/kg/day, day 7): significantly reduced
- macroscopic damage score ([1]; 10 and 40 mg/kg/day (tested doses), day 7, vs vehicle group): significantly reduces
- weight loss (body weight) ([1]; 10 or 40 mg/kg/day per os): alleviate
- Disease activity index, D1 [2, 4]: 1.40
- Disease activity index, D2 [2, 4]: 1.35
- Disease activity index, D3 [2, 4]: 2.00
- Disease activity index, D4 [2, 4]: 3.75
- Disease activity index, D5 [2, 4]: 4.00
- Disease activity index, D6 [2, 4]: 4.00
- Disease activity index, D7 [2, 4]: 2.90
- Variation of the body weight of the mice in comparison with day D0, D1-D0 [2, 4]: 0.67 g
- Variation of the body weight of the mice in comparison with day D0, D2-D0 [2, 4]: 0.44 g
- Variation of the body weight of the mice in comparison with day D0, D3-D0 [2, 4]: 0.45 g
- Variation of the body weight of the mice in comparison with day D0, D4-D0 [2, 4]: -0.42 g
- Variation of the body weight of the mice in comparison with day D0, D5-D0 [2, 4]: -2.15 g
- Variation of the body weight of the mice in comparison with day D0, D6-D0 [2, 4]: -3.79 g
- Variation of the body weight of the mice in comparison with day D0, D7-D0 [2, 4]: -5.19 g
- macroscopic damage score ([2]; DSS 5%, Group 2, 10 mg/kg/24 h per os, day 7, Moy): 5.2
- MPO activity ([2]; DSS 5%, Group 2, 10 mg/kg/24 h per os, day 7, colon, Moy): 12.99 mU/mg proteins
- Disease activity index, D1 [2, 5]: 2.00
- Disease activity index, D2 [2, 5]: 1.10
- Disease activity index, D3 [2, 5]: 1.50
- Disease activity index, D4 [2, 5]: 2.80
- Disease activity index, D5 [2, 5]: 4.00
- Disease activity index, D6 [2, 5]: 4.00
- Disease activity index, D7 [2, 5]: 3.00
- Variation of the body weight of the mice in comparison with day D0, D1-D0 [2, 5]: -0.08 g
- Variation of the body weight of the mice in comparison with day D0, D2-D0 [2, 5]: -0.07 g
- Variation of the body weight of the mice in comparison with day D0, D3-D0 [2, 5]: -0.19 g
- Variation of the body weight of the mice in comparison with day D0, D4-D0 [2, 5]: -0.68 g
- Variation of the body weight of the mice in comparison with day D0, D5-D0 [2, 5]: -1.07 g
- Variation of the body weight of the mice in comparison with day D0, D6-D0 [2, 5]: -2.69 g
- Variation of the body weight of the mice in comparison with day D0, D7-D0 [2, 5]: -4.00 g
- macroscopic damage score ([2]; DSS 5%, Group 3, 40 mg/kg/24 h per os, day 7, Moy): 4.0
- MPO activity ([2]; DSS 5%, Group 3, 40 mg/kg/24 h per os, day 7, colon, Moy): 6.9 mU/mg proteins
- disease activity index ([2]; DSS mice, 10 mg/kg daily (Group 2), 7th day): significantly reduces
- MPO activity ([2]; DSS mice, 40 mg/kg (Group 3)): strongly reduced
- disease activity index ([2]; DSS mice, 40 mg/kg (Group 3), 4th and 7th day, vs vehicle group (Group 4)): significantly reduced
- weight loss ([2]; DSS mice, 40 mg/kg (Group 3), 6th day): significantly reduces
- daily signs of colitis ([2]; DSS mice, 10 and 40 mg/kg, seems more effective than 5-ASA): reduces, significantly and in a dose-dependent way
- macroscopic damage score ([2]; DSS mice, both tested doses 10 and 40 mg/kg (Groups 2 and 3), vs vehicle group (Group 4)): significantly reduces

SMILES: Nc1ccc(O)c(C(=O)O)c1 [5-ASA, 5-aminosalicylic acid, reference compound]
- Disease activity index, D1 [2, 6]: 1.64
- Disease activity index, D2 [2, 6]: 1.25
- Disease activity index, D3 [2, 6]: 1.92
- Disease activity index, D4 [2, 6]: 3.50
- Disease activity index, D5 [2, 6]: 4.00
- Disease activity index, D6 [2, 6]: 4.00
- Disease activity index, D7 [2, 6]: 3.20
- Variation of the body weight of the mice in comparison with day D0, D1-D0 [2, 6]: 0.64 g
- Variation of the body weight of the mice in comparison with day D0, D2-D0 [2, 6]: 0.64 g
- Variation of the body weight of the mice in comparison with day D0, D3-D0 [2, 6]: 1.05 g
- Variation of the body weight of the mice in comparison with day D0, D4-D0 [2, 6]: -0.03 g
- Variation of the body weight of the mice in comparison with day D0, D5-D0 [2, 6]: -1.67 g
- Variation of the body weight of the mice in comparison with day D0, D6-D0 [2, 6]: -3.68 g
- Variation of the body weight of the mice in comparison with day D0, D7-D0 [2, 6]: -4.76 g
- macroscopic damage score ([2]; DSS 5%, Group 5, 50 mg/kg/24 h per os, day 7, Moy): 6.5
- MPO activity ([2]; DSS 5%, Group 5, 50 mg/kg/24 h per os, day 7, colon, Moy): 9.34 mU/mg proteins
- macroscopic damage score ([2]; DSS mice, 50 mg/kg (Group 5), vs vehicle group (Group 4)): significantly reduces
- increase of the disease activity index [2, 7]: prevents neither
- weight loss [2, 7]: prevents neither

SMILES: C[C@]12C=CC(=O)C=C1CC[C@@H]1[C@@H]2[C@@H](O)C[C@@]2(C)[C@H]1CC[C@]2(O)C(=O)CO [prednisolone]
- apparition of oedema (thickness of the wall of the colon) ([1]; 3 mg/kg daily oral, 7 days): does not prevent
- disease activity index (DAI) ([1]; 3 mg/kg daily oral, all observed points): does not prevent the increase
- macroscopic damage score ([1]; 3 mg/kg, day 7, vs vehicle group): significantly reduces
- weight loss (body weight) ([1]; 3 mg/kg/day per os): alleviate
- MPO activity ([1]; 3 mg/kg/day, day 7, vs vehicle group): significantly reduce
- allodynia-type response (Von Frey) [3]: only a partial inhibition
